Like-named read-outs stand apart in the source and are kept apart here.
Columns and labels:
U87MG tumor-bearing mice = assay: PET/CT imaging of U87MG tumor-bearing mice; format: in vivo; settings: 3 h after i.v. injection of ~10 MBq (~1 nmol), one or two mice
Experimental: The energy window was set to 150–650 keV. […] All static PET scans lasted for 20 min.

[1] = Biodistribution in U87MG tumor-bearing mice; format: in vivo; settings: female, CD-1 nude (athymic nude), mouse, iv, total radioactivity, i.v. ~5 MBq (~1 nmol), mean ± SD; for tissue to tissue ratio at 0.5 h / tissue uptake at 0.5 h: 30 min p.i.; for tissue to tissue ratio at 5 h / tissue uptake at 5 h: 5 h p.i.
[2] = U87MG tumor / blood, n=3, read-out: Tumor-to-blood ratio
[3] = U87MG tumor / kidneys, n=3, read-out: Tumor-to-kidney ratio
[4] = U87MG tumor / liver, n=3, read-out: Tumor-to-liver ratio
[5] = U87MG tumor, n=3, read-out: Biodistribution, U87MG Tumor
[6] = blood, 5 MBq per mouse, n=3, read-out: Biodistribution, Blood
[7] = bone, 5 MBq per mouse, n=3, read-out: Biodistribution, Bone
[8] = brain, 5 MBq per mouse, n=3, read-out: Biodistribution, Brain
[9] = heart, 5 MBq per mouse, n=3, read-out: Biodistribution, Heart
[10] = intestines, 5 MBq per mouse, n=3, read-out: Biodistribution, Intestines
[11] = kidneys, n=3, read-out: Biodistribution, Kidneys
[12] = liver, n=3, read-out: Biodistribution, Liver
[13] = lung, 5 MBq per mouse, n=3, read-out: Biodistribution, Lung
[14] = muscle, 5 MBq per mouse, n=3, read-out: Biodistribution, Muscle
[15] = skin, 5 MBq per mouse, n=3, read-out: Biodistribution, Skin
[16] = spleen, 5 MBq per mouse, n=3, read-out: Biodistribution, Spleen
[17] = stomach, 5 MBq per mouse, n=3, read-out: Biodistribution, Stomach

N=C(N)NCCC[C@@H]1NC(=O)[C@H](CCCCNC(=O)CCC(C(=O)O)N2CCN(CC(=O)O)CCN(CC(=O)O)CC2)NC(=O)[C@@H](Cc2ccc(O)cc2)NC(=O)[C@H](CC(=O)O)NC(=O)CNC1=O (some centres unmarked) [^44Sc-NODAGA-RGD, metal not drawn]
PET/CT distribution of radioactivity (in words) (U87MG tumor-bearing mice): comparable to ^68Ga-NODAGA-RGD but showed somewhat more background activity in the abdominal tract | tissue to tissue ratio at 0.5 h [1, 2]: 4.73 ± 1.24 | tissue to tissue ratio at 5 h [1, 2]: 30.5 ± 9.93 | tissue to tissue ratio at 0.5 h [1, 3]: 1.18 ± 0.28 | tissue to tissue ratio at 2 h ([1]; U87MG tumor / kidneys, 2 h p.i., n=3, read-out: Tumor-to-kidney ratio): 2.68 ± 0.14 | tissue to tissue ratio at 5 h [1, 3]: 2.58 ± 0.24 | tissue to tissue ratio at 0.5 h [1, 4]: 3.02 ± 0.4 | tissue to tissue ratio at 5 h [1, 4]: 2.82 ± 0.21 | tissue uptake at 0.5 h [1, 5]: 4.5 ± 0.77 %ID/g | tissue uptake at 5 h [1, 5]: 3.01 ± 0.55 %ID/g | tissue uptake at 0.5 h [1, 6]: 0.98 ± 0.21 %ID/g | tissue uptake at 5 h [1, 6]: 0.11 ± 0.07 %ID/g | tissue uptake at 0.5 h [1, 7]: 1.53 ± 0.16 %ID/g | tissue uptake at 5 h [1, 7]: 0.76 ± 0.03 %ID/g | tissue uptake at 0.5 h [1, 8]: 0.1 ± 0.01 %ID/g | tissue uptake at 5 h [1, 8]: 0.06 ± 0.01 %ID/g | tissue uptake at 0.5 h [1, 9]: 0.89 ± 0.13 %ID/g | tissue uptake at 2 h ([1]; heart, 5 MBq per mouse, 2 h p.i., n=3, read-out: Biodistribution, Heart): 0.44 ± 0.04 %ID/g | tissue uptake at 5 h [1, 9]: 0.35 ± 0.13 %ID/g | tissue uptake at 0.5 h [1, 10]: 1.76 ± 0.22 %ID/g | tissue uptake at 2 h ([1]; intestines, 5 MBq per mouse, 2 h p.i., n=3, read-out: Biodistribution, Intestines): 0.91 ± 0.16 %ID/g | tissue uptake at 5 h [1, 10]: 0.75 ± 0.13 %ID/g | tissue uptake at 2 h ([1]; kidneys, 5 MBq per mouse, 2 h p.i., n=3, read-out: Biodistribution, Kidneys): 1.5 ± 0.3 %ID/g | tissue uptake at 0.5 h [1, 11]: 3.89 ± 0.68 %ID/g | tissue uptake at 5 h [1, 11]: < 2 %ID/g | tissue uptake at 0.5 h [1, 12]: 1.49 ± 0.06 %ID/g | tissue uptake at 2 h ([1]; liver, 2 h p.i., n=3, read-out: Biodistribution, Liver): 1.34 ± 0.27 %ID/g | tissue uptake at 5 h [1, 12]: ~1 %ID/g | tissue uptake at 0.5 h [1, 13]: 2.2 ± 0.68 %ID/g | tissue uptake at 5 h [1, 13]: 0.65 ± 0.16 %ID/g | tissue uptake at 0.5 h [1, 14]: 0.68 ± 0.03 %ID/g | tissue uptake at 5 h [1, 14]: 0.3 ± 0.06 %ID/g | tissue uptake at 2 h ([1]; pancreas, 5 MBq per mouse, 2 h p.i., n=3, read-out: Biodistribution, pancreas): 0.43 ± 0.04 %ID/g | tissue uptake at 5 h ([1]; pancreas, 5 MBq per mouse, n=3, read-out: Biodistribution, pancreas): 0.37 ± 0.07 %ID/g | tissue uptake at 0.5 h ([1]; pancreas, n=3, read-out: Biodistribution, pancreas): 0.73 ± 0.22 %ID/g | tissue uptake at 0.5 h [1, 15]: 1.97 ± 0.17 %ID/g | tissue uptake at 2 h ([1]; skin, 5 MBq per mouse, 2 h p.i., n=3, read-out: Biodistribution, Skin): 1.3 ± 0.13 %ID/g | tissue uptake at 5 h [1, 15]: 1.21 ± 0.34 %ID/g | tissue uptake at 0.5 h [1, 16]: 1.63 ± 0.21 %ID/g | tissue uptake at 2 h ([1]; spleen, 5 MBq per mouse, 2 h p.i., n=3, read-out: Biodistribution, Spleen): 1.58 ± 0.31 %ID/g | tissue uptake at 5 h [1, 16]: 0.95 ± 0.19 %ID/g | tissue uptake at 0.5 h [1, 17]: 1.69 ± 0.16 %ID/g | tissue uptake at 2 h ([1]; stomach, 5 MBq per mouse, 2 h p.i., n=3, read-out: Biodistribution, Stomach): 1.01 ± 0.32 %ID/g | tissue uptake at 5 h [1, 17]: 0.8 ± 0.03 %ID/g
